Laboratory results taken from patent US11369565B2, “Amino-pyrimidine skeletal muscle modulators” (Cytokinetics, Inc., priority 2010, dated 2022).

System: rabbit skeletal myofibrils (approximately 90% fast fibers)
Test: Activation of fast skeletal myofibrils (PUMA coupled-enzyme ATPase assay at pCa25)
Format: biochemical
Details: concentration at which the compound increased the enzymatic activity by 40%; calcium at pCa25; PM12 buffer pH 6.8
In short: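 In pH 6.8 PM12 buffer (12 mM Pipes, 2 mM MgCl2, 1 mM DTT), ADP from myosin regenerated via pyruvate kinase/lactate dehydrogenase, with absorbance change at 340 nm from NADH oxidation as read-out. Calcium set at pCa25; Triton-washed rabbit skeletal myofibrils (about 90% fast fibres) used.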

Row | Mean AC1.4 | Compound
1 | C (C=10-20 uM) | CC(C)(Nc1ncc(-c2cc(C(N)=O)n[nH]2)cn1)c1ncccc1Cl [5-(2-{[1-(3-chloro(2-pyridyl))-isopropyl]amino}pyrimidin-5-yl)pyrazole-3-carboxamide]
2 | C (C=10-20 uM) | O=C(O)c1csc(-c2cnc(NCC3(c4ncccc4F)CCC3)nc2)n1 [2-[2-({[(3-fluoro-2-pyridyl)cyclobutyl]methyl}amino)pyrimidin-5-yl]-1,3-thiazole-4-carboxylic acid]
3 | D (D=>20 uM) | CC(C)(Nc1ncc(-c2cnc3c(c2)NC(=O)C3)cn1)c1ncccc1Cl [6-(2-{[1-(3-chloro(2-pyridyl))-isopropyl]amino}pyrimidin-5-yl)-2-pyrrolino[3,2-b]pyridin-2-one]
4 | D (D=>20 uM) | ethyl 1-[(2-{[2-(4-fluorophenyl)-2- methylpropyl]amino}pyrimidin-5- yl)carbonylamino] cyclopropanecarboxylate
5 | C (C=10-20 uM) | Oc1ncccc1-c1cnc(NC[C@]2(c3ncccc3F)C[C@H](F)C2)nc1 [3-[2-({[3-fluoro-1-(3-fluoro(2-pyridyl))cyclobutyl]methyl}amino)pyrimidin-5-yl]pyridin-2-ol]
6 | B (B=1-10 uM) | CC(C)(CNc1ncc2c(n1)CCN(S(C)(=O)=O)C2)c1ccc(F)cc1 [2-{[2-(4-fluorophenyl)-2-methylpropyl]amino}-6-(methylsulfonyl)-5,6,7,8-tetrahydropyridino[4,3-d]pyrimidine]
7 | D (D=>20 uM) | CC(C)(Nc1ncc(-c2cnn(CC(=O)O)c2)cn1)c1ncccc1Cl [2-[4-(2-{[1-(3-chloro(2-pyridyl))-isopropyl]amino}pyrimidin-5-yl)pyrazolyl]acetic acid]
8 | A (A=<1 uM) | O=C(NC1CC(O)C1)c1ccc(F)c(-c2cnc(NC[C@]3(c4ncccc4F)C[C@H](F)C3)nc2)c1 (stereo partly shown) [{4-fluoro-3-[2-({[3-fiuoro-1-(3-fluoro(2-pyridyl))cyclobutyl]methyl}amino)pyrimidin-5-yl]phenyl}-N-(3-hydroxycyclobutyl)carboxamide]
9 | D (D=>20 uM) | O=C(O)c1ccc(=O)n(-c2cnc(NC[C@]3(c4ncccc4F)C[C@H](F)C3)nc2)c1 [1-[2-({[3-fluoro-1-(3-fluoro(2-pyridyl))cyclobutyl]methyl}amino)pyrimidin-5-yl]-6-oxohydropyridine-3-carboxylic acid]
10 | D (D=>20 uM) | Cn1nc(-c2cnc(NC(C)(C)c3ncccc3Cl)nc2)cc1C(N)=O [3-(2-{[1-(3-chloro(2-pyridyl))-isopropyl]amino}pyrimidin-5-yl)-1-methylpyrazole-5-carboxamide]
11 | B (B=1-10 uM) | CC(C)(Nc1ncc(-c2c[nH]c(=O)c(C(N)=O)c2)cn1)c1ncccc1Cl [5-(2-{[1-(3-chloro(2-pyridyl))-isopropyl]amino}pyrimidin-5-yl)-2-oxohydropyridine-3-carboxamide]
12 | B (B=1-10 uM) | CC(C)(Nc1ncc(-c2cncc(C(N)=O)c2)cn1)c1ncccc1Cl [5-(2-{[1-(3-chloro(2-pyridyl))-isopropyl]amino}pyrimidin-5-yl)pyridine-3-carboxamide]
13 | C (C=10-20 uM) | CC(C)(Nc1nccc(-c2nccs2)n1)c1cccc(OC(F)F)n1 [{1-[6-(difluoromethoxyl)(2-pyridyl)]-isopropyl)(4-(1,3-thiazol-2-yl)]pyrimidin-2-yl)amine]
14 | B (B=1-10 uM) | Nc1cncc(-c2cnc(NC[C@]3(c4ncccc4F)C[C@H](F)C3)nc2)n1 [[5-(6-aminopyrazin-2-yl)pyrimidin-2-yl]{[3-fluoro-1-(3-fluoro(2-pyridyl))cyclobutyl]methyl}amine]
15 | A (A=<1 uM) | CNC(=O)c1ccc(O)c(-c2cnc(NC[C@]3(c4ncccc4F)C[C@H](F)C3)nc2)c1 [{3-[2-({[3-fluoro-1-(3-fluoro(2-pyridyl))cyclobutyl]methyl}amino)pyrimidin-5-yl]-4-hydroxyphenyl}-N-methylcarboxamide]
16 | B (B=1-10 uM) | O=C(Nc1nncs1)c1cnc(NCC2(c3ncccc3F)CCC2)nc1 [[2-({[(3-fluoro(2-pyridyl))cyclobutyl]methyl}amino)pyrimidin-5-yl]-N-(1,3,4-thiadiazol-2-yl)carboxamide]
17 | B (B=1-10 uM) | CC(C)(CNc1ncc(-c2cncc(C#N)c2)cn1)c1ccc(F)cc1 [5-(2-{[2-(4-fluorophenyl)-2-methylpropyl]amino}pyrimidin-5-yl)pyridine-3-carbonitrile]
18 | A (A=<1 uM) | CC(C)(Nc1ncc(-c2cnc3cc[nH]c3c2)cn1)c1ncccc1Cl [[1-(3-chloro(2-pyridyl))-isopropyl](5-pyrrolo[3,2-b]pyridin-6-ylpyrimidin-2-yl)amine]
19 | D (D=>20 uM) | CCOC(=O)c1cc(-c2cnc(NC(C)(C)c3ncccc3Cl)nc2)no1 [ethyl 3-(2-{[1-(3-chloro(2-pyridyl))-isopropyl]amino}pyrimidin-5-yl)isoxazole-5-carboxylate]
20 | B (B=1-10 uM) | COc1ncc(-c2cnc(NC(C)(C)c3ncccc3Cl)nc2)cc1C(N)=O [5-(2-{[1-(3-chloro(2-pyridyl))-isopropyl]amino}pyrimidin-5-yl)-2-methoxypyridine-3-carboxamide]

Row | Mean AC1.4 | Compound
21 | D (D=>20 uM) | COC(=O)CNC(=O)c1cnc(NCC2(c3ncccc3F)CCC2)nc1 [methyl 2-{[2-({[(3-fluoro-2-pyridyl)cyclobutyl]methyl}amino)pyrimidin-5-yl]carbonylamino} acetate]
22 | A (A=<1 uM) | NC(=O)c1cccc(-c2cnc(NCC3(c4ncccc4Cl)CCC3)nc2)c1 [3-[2-({[(3-chloro-2-pyridyl)cyclobutyl]methyl}amino)pyrimidin-5-yl]benzamide]
23 | D (D=>20 uM) | COc1ccc(NC(=O)c2cnc(NCC3(c4ncccc4F)CCC3)nc2)cn1 [[2-({[(3-fluoro(2-pyridyl))cyclobutyl]methyl}amino)pyrimidin-5-yl]-N-(6-methoxy(3-pyridyl))carboxamide]
24 | C (C=10-20 uM) | Fc1ccc(C2(Nc3nccc(C(F)(F)F)n3)CCC2)cc1 [[(4-fluorophenyl)cyclobutyl][4-(trifluoromethyl)pyrimidin-2-yl]amine]
25 | A (A=<1 uM) | NC(=O)c1n[nH]c2ccc(-c3cnc(NC4(c5ncccc5F)CCC4)nc3)cc12 [5-(2-{[(3-fluoro-2-pyridyl)cyclobutyl]amino}pyrimidin-5-yl)-1H-indazole-3-carboxamide]
26 | B (B=1-10 uM) | COc1nc(NC[C@]2(c3ncccc3F)C[C@H](F)C2)ncc1-c1ccccc1 [{[3-fluoro-1-(3-fluoro(2-pyridyl))cyclobutyl]methyl}(4-methoxy-5-phenylpyrimidin-2-yl)amine]
27 | D (D=>20 uM) | CC(C)(Nc1ncc(-c2ncc(CNC(=O)c3cnc[nH]3)s2)cn1)c1ncccc1F [N-{[2-(2-{[1-(3-fluoro(2-pyridyl))-isopropyl]amino}pyrimidin-5-yl)(1,3-thiazol-5-yl)]methyl}imidazol-5-ylcarboxamide]
28 | C (C=10-20 uM) | CC(C)(Nc1ncc(-c2cc(C#N)ccn2)cn1)c1ncccc1Cl [2-(2-{[1-(3-chloro(2-pyridyl))-isopropyl]amino}pyrimidin-5-yl)pyridine-4-carbonitrile]
29 | B (B=1-10 uM) | NCc1cnc(-c2cnc(NCC3(c4ncccc4Cl)CCC3)nc2)s1 [{5-[5-(aminomethyl)(1,3-thiazol-2-yl)]pyrimidin-2-yl}{[3-chloro(2-pyridyl))cyclobutyl]methyl)amine]
30 | B (B=1-10 uM) | NC(=O)Cc1cnc(-c2cnc(NCC3(c4ncccc4F)CCC3)nc2)s1 [2-{2-[2-({[(3-fluoro-2-pyridyl)cyclobutyl]methyl}amino)pyrimidin-5-yl]-1,3-thiazol-5-yl}acetamide]
31 | C (C=10-20 uM) | CC(C)(CNc1ncc(-c2nccc(C(N)=O)n2)cn1)c1ncccc1F [2-(2-{[2-(3-fluoro(2-pyridyl))-2-methylpropyl]amino)pyrimidin-5-yl)pyrimidine-4-carboxamide]
32 | C (C=10-20 uM) | N#Cc1cnc(NC2(c3ccc(F)cc3)CCC2)nc1 [2-{[(4-fluorophenyl)cyclobutyl]amino} pyrimidine-5-carbonitrile]
33 | B (B=1-10 uM) | CC(C)(Nc1ncc(-c2cn3c(C(N)=O)csc3n2)cn1)c1ncccc1Cl
34 | B (B=1-10 uM) | CC(C)(Nc1ncc(-n2ccc(C(N)=O)c2)cn1)c1ncccc1Cl [1-(2-{[1-(3-chloro(2-pyridyl))-isopropyl]amino}pyrimidin-5-yl)pyrrole-3-carboxamide]
35 | B (B=1-10 uM) | CC(C)(Nc1ncc(-c2cc(C(N)=O)ccc2F)cn1)c1cccnc1Cl [3-(2-{[1-(2-chloro(3-pyridyl))-isopropyl]amino}pyrimidin-5-yl)-4-fluorobenzamide]
36 | B (B=1-10 uM) | CC(C)(Nc1ncc(-n2cc(C(N)=O)cn2)cn1)c1ncccc1Cl [1-(2-{[1-(3-chloro(2-pyridyl))-isopropyl]amino}pyrimidin-5-yl)pyrazole-4-carboxamide]
37 | A (A=<1 uM) | NC(=O)c1ccc(F)c(-c2cnc(NC[C@]3(c4ncccc4F)C[C@H](F)C3)nc2)c1O [4-fluoro-3-[2-({[3-fluoro)-1-(3-fluoro(2-pyridyl))cyclobutyl]methyl}amino)pyrimidin-5-yl]-2-hydroxybenzamide]
38 | D (D=>20 uM) | COC(=O)c1nc(-c2cnc(NC(C)(C)c3ncccc3Cl)nc2)cn1C [methyl 4-(2-{[1-(3-chloro(2-pyridyl))-isopropyl}amino}pyrimidin-5-yl)-1-methylimidazole-2-carboxylate]
39 | A (A=<1 uM) | NC(=O)c1ccc(F)c(-c2cnc(NC3(c4ncccc4F)CCC3)nc2)c1 [4-fluoro-3-(2-{[(3-fluoro(2-pyridyl))cyclobutyl]amino}pyrimidin-5-yl)benzamide]
40 | D (D=>20 uM) | CC(C)(c1ncccc1S(C)(=O)=O)N(O)c1ncc(-c2cccc(C(N)=O)c2)cn1 [3-[2-({1-methyl-1-[3-(methylsulfonyl)(2-pyridyl)]ethyl}(hydroxyamino))pyrimidin-5-yl]benzamide]
